{
  "source": "paper PMC2728841",
  "about": "“The Crystal Structure of the Escherichia coli Autoinducer-2 Processing Protein LsrF” (PLoS ONE, 2009)",
  "target": "T1, LsrF (Escherichia coli, UniProt P76143)",
  "T1 construct": "His6-MBP fusion (pDEST-HisMBP) made in E. coli BL21, tag cut with TEV protease; decamer; model lacks residues 1-9, 177-180, 290-291",
  "T1 sequence (P76143 whole entry, the tested form may be a part)": "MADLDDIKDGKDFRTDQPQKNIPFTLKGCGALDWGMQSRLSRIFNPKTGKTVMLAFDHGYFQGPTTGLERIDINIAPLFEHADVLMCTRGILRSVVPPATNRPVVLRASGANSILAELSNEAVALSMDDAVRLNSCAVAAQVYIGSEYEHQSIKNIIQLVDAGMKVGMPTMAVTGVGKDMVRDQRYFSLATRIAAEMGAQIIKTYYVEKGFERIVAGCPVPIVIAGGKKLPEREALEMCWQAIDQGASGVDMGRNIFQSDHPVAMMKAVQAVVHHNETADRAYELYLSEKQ",
  "assay": "X-ray crystallography, crystal soak, […] Å",
  "format": "binding",
  "details": "100 mM ligand soak, 5 min, 100 mM Tris pH 8.0, 100 mM MgCl2, 27.5% PEG 400; aldolase active site; non-covalent model",
  "data": [
    {"smiles": "O=P(O)(O)OC[C@H]1OC(O)[C@H](O)[C@@H]1O", "note": "(stereo partly shown) [ribose-5-phosphate]", "values": [
      {"measurement": "X-ray crystallography, crystal soak, 2.5 Å", "result": "The final model included one ribose-5-phosphate per chain"}
    ]}
  ]
}
